Data: patent publication US20100047327A1, “Adjuvant for Transdermal or Transmucosal Administration and Pharmaceutical Preparation Containing the Same” (priority 2007, published 2010)

What was measured:
[1] = test system: OVA specific IgG antibody; assay: OVA specific IgG antibody titer by ELISA, intracutaneous OVA plus transdermal adjuvant; assay type: in vivo, BALB/c mouse; settings: for Antibody titer (×10^4): OVA 10 μg/head intracutaneous, then 25 μL adjuvant applied transdermally, dosing at 0, 2, 4 weeks, data after five weeks; for immune response of the antigen IgG: intracutaneous OVA plus transdermal adjuvant on intact skin, in words
Protocol: OVA (an antigen: Ovalbumin, Sigma Company) was prepared by dissolving it in physiological saline to give 10 μg/head, and to the OVA alone group, 25 μL of OVA aqueous solution was administered intracutaneously. To the group in which various kinds of adjuvants (lauryl alcohol, oleyl alcohol, isostearyl alcohol, octyl dodecanol, polyethylene glycol monolaurate and Freund complete adjuvant (FCA)) were used in combination, immediately after OVA solution was administered intracutaneously, 25 μL of each adjuvant solution was administered (applied) transdermally on the abdominal skin surface. Administration was carried out 0, 2 and 4 weeks later, and blood collection was carried out 2, 4 and 5 weeks later, and OVA specific IgG antibody titer after 2, 4 and 5 weeks was measured by ELISA.

[2] = Skin irritation score, intracutaneous versus transdermal administration; assay type: in vivo, BALB/c mouse; parameters: Skin irritation score Intracutaneous administration: key to the marks not given beside the values; settings: for Skin irritation score Transdermal administration: 50 μL of acetone solution (50%) applied transdermally
[3] = test system: MHC Class II molecule of the lymph cell; assay: Expression of MHC Class II molecule of lymph cells by flow cytometry after transdermal administration of adjuvant; assay type: in vivo, BALB/c mouse; settings: FIG. 1; for number of the lymph cells expressing an MHC Class II molecule: 50 μL of acetone solution (50%) applied transdermally to shaved abdomen, lymph node five days later
[4] = test system: OVA specific IgG antibody; assay: OVA specific IgG antibody titer, microneedle coated with antigen emulsion; assay type: in vivo, BALB/c mouse; settings: microneedle coated with emulsion antigen solution:alcohol:Tween 80 1:1:0.01, OVA 0.1 mg/patch, two hours; FIG. 5
Protocol: In addition, in microneedle (OVA+lauryl alcohol or OVA+oleyl alcohol) group, emulsion [antigen solution:lauryl alcohol or oleyl alcohol:surfactant (Tween 80)=1:1:0.01] was coated on the needle of the microneedle and punctured it for two hours. Administration was carried out 0, 2 and 4 weeks later, and blood collection was carried out 2, 4 and 5 weeks later, and OVA specific IgG antibody titers were measured by ELISA.

[5] = test system: OVA specific IgG antibody; assay: as above; assay type: in vivo, hairless rat; settings: microneedle coated with emulsion antigen solution:oil or alcohol:Tween 80 1:1:0.01, OVA 2 mg/patch, two hours; FIG. 4
Protocol: OVA was prepared in the abdomen of the male hairless rat of seven to eight weeks old to give 2 mg/patch, and in the microneedle (OVA+5% polyvinyl alcohol) group, the needle part of the microneedle was coated with an antigen and 5% polyvinyl alcohol liquid [mixed in antigen solution:10% polyvinyl alcohol=1:1], and punctured for two hours. In addition, in microneedle (OVA+olive oil) or (OVA+lauryl alcohol) group, emulsion [antigen solution:olive oil or lauryl alcohol:surfactant (Tween 80)=1:1:0.01] was coated on the needle of the microneedle and punctured it for two hours. Administration was carried out 0, 2 and 4 weeks later, and blood collection was carried out 2, 4 and 5 weeks later, and OVA specific IgG antibody titers were measured by ELISA.

[6] = test system: OVA specific IgG antibody; assay: OVA specific IgG antibody titer by ELISA, OVA/LA emulsion with microneedle, skin abrading or iontophoresis; assay type: in vivo, BALB/c mouse; settings: FIG. 2
Protocol: OVA was prepared to give 100 μg/head, and to the OVA alone group, OVA aqueous solution was applied, and in the group in which lauryl alcohol (LA) was used in combination, the solution in which OVA solution, LA and Tween 20 (emulsifier) was mixed in the ratio of 1:1:0.01 which was emulsified was prepared and used. In the microneedle application group, 1 cm^2 of a microneedle (needle length: about 200 μm, 400 needles/cm^2) was punctured to abdominal skin that had been shaved beforehand, thereafter 50 μL of the above-mentioned emulsion solution was applied immediately. In addition, in skin abrading treatment group, skin was abraded five times using 3M RED Dot™ 2236 instead of a microneedle, thereafter 50 μL of the emulsion solution was applied. In iontophoresis application group, 50 μL of the emulsion solution was applied to shaved abdominal skin, thereafter an iontophoresis preparation (a non-woven fabric preparation: Ag, Ag/AgCl 1 cm^2) in which physiological saline was impregnated to the non-woven fabric was affixed in the applied part, and a direct current (0.4 mA/patch) was applied for one hour. Administration was carried out 0, 2 and 4 weeks later, and blood collection was carried out 2, 4 and 5 weeks later, and OVA specific IgG antibody titers were measured by ELISA.

influenza H3N2 = assay: Antibody titer after transnasal administration of influenza H3N2 antigen plus LA; settings: influenza H3N2 1 μg/head, antigen solution:LA:Tween 80 9:1:0.05; FIG. 6
Protocol: To a male BALB/c mouse of seven to eight weeks old, under inhalation anesthesia (Sevofrane) with matching with breathing, 50 μL of antigen (influenza H3N2 (Biogenesis company): 1 μg/head) was administered to a nose by dripping (transnasal (antigen)). The antigen+LA, [mixed in antigen solution:LA:surfactant (Tween 80)=9:1:0.05] was administered to a nose by dripping (transnasal (antigen+LA)).
In addition, in the intracutaneous treatment group, the abdomen was shaved under Nembutal anesthesia, 50 mL of antigen (influenza H3N2: 0.07 μg/head) was administered intracutaneously (intracutaneous (antigen)). The antigen+LA, [mixed in antigen solution:LA:surfactant (Tween 80)=1:1:0.01] was administered intracutaneously (intracutaneous (antigen+LA)). Boost was made in the same condition 2 and 4 weeks after the first time administration, and blood was collected from fundus after 2, 4 and 5 weeks and antibody titers were measured.

[7] = test system: OVA specific IgG antibody; assay: OVA specific IgG antibody titer, antigen-coated microneedle after lauryl alcohol applied to skin; assay type: in vivo, hairless rat; settings: LA applied to skin before puncture with OVA-coated microneedle (2 mg/patch, two hours); FIG. 3
Protocol: OVA was prepared in the abdomen of the male hairless rat of seven to eight weeks old to give 2 mg/patch, and in the microneedle group, the needle part of the microneedle was coated with an antigen and 5% polyvinyl alcohol liquid, and physiological saline was dropped on the skin side, and punctured for two hours. In addition, in microneedle+lauryl alcohol group, lauryl alcohol was applied to skin beforehand, physiological saline was dropped on the skin side, and the needle of the microneedle coated with the above-described antigen and 5% polyvinyl alcohol liquid was punctured for two hours. Administration was carried out 0, 2 and 4 weeks later, and blood collection was carried out 2, 4 and 5 weeks later, and OVA specific IgG antibody titers were measured by ELISA.

OVA = assay: Antibody titer after oral mucosal administration of OVA plus LA emulsion; assay type: in vivo, BALB/c mouse; settings: OVA 2500 μg/head, LA groups (20) and (50), boost after one week, blood after two weeks; FIG. 7

Row | Compound | Antibody titer (×10^4) [1] | Skin irritation score Transdermal administration [2] | number of the lymph cells expressing an MHC Class II molecule [3] | further results
1 | polyethylene glycol monolaurate | 0.9 ×10^4 | not detected | – | –
2 | CCCCCCCC/C=C\CCCCCCCC(=O)O [oleic acid] | – | – | remarkable increase | –
3 | CC(C)CCCCCCCCCCCCCCCO [Isostearyl alcohol, isostearyl alcohol] | 1.3 ×10^4 | not detected | remarkable increase | –
4 | CCCCCCCC/C=C\CCCCCCCCO [Oleyl alcohol, oleyl alcohol] | 2.1 ×10^4 | – | remarkable increase | immune response of the antigen IgG [1]: highest immune response; OVA specific IgG antibody titer [4]: remarkably increased; Skin irritation score Intracutaneous administration ([2]; mouse, in vivo): +++
5 | CCCCCCCCCCCCO [Lauryl alcohol, lauryl alcohol] | 2.1 ×10^4 | not detected | remarkable increase | immune response of the antigen IgG [1]: highest immune response; OVA specific IgG antibody titer [5]: remarkably increased; antigen specific IgG, iontophoresis (IP+LA) ([6]; OVA 100 μg/head, OVA:LA:Tween 20 1:1:0.01 emulsion, 0.4 mA/patch for one hour, four weeks later): highest immune response; antigen specific IgG, skin abrading pre-treatment (abrading+LA) ([6]; OVA 100 μg/head, emulsion applied after abrading, four weeks later): high immune response; antigen specific IgG, microneedle (microneedle+LA) ([6]; OVA 100 μg/head, emulsion applied after microneedle puncture, four weeks later): high immune response; antibody titer compared to antigen administered alone ([6]; lauryl alcohol used together with OVA): significant increase; antibody titer, transnasal (antigen+LA) versus antigen alone (influenza H3N2): increase of the antibody titer was observed; OVA specific IgG antibody titer [4]: remarkably increased; OVA specific IgG antibody titer [7]: remarkably increased; adjuvant effect (MHC Class II expression), comparison among adjuvants ([3]; transdermal administration): most remarkable; antibody titer, oral mucosal administration (OVA): increase of the antibody titer was observed depending on the LA concentration
6 | sorbitan monooleate | – | – | remarkable increase | –
7 | sorbitan monolaurate | – | not detected | remarkable increase | –
8 | CCCCCCCCCCC(CO)CCCCCCCC (stereo not drawn) [Octyl dodecanol, octyl dodecanol] | 0.6 ×10^4 | not detected | – | –
